SMILES strings stand for the structures.

The test system of assay [1] is NZO mice fed a high fat diet. Nature of the assay: Fasting serum glucose, fasting serum insulin and glucose tolerance, comparison of macrolides. In kind it is in vivo, mouse. The protocol: (§1) Female mice were administered tacrolimus (0.1 mg/kg or 0.05 mg/kg, n=6/group), vehicle (n=10), pimecrolimus (0.1 mg/kg, n=6) or sirolimus (0.1 mg/kg, n=6) subcutaneously every other day for 3 weeks.
(§2) For the comparative evaluation of other macrolide drugs to tacrolimus, mice starting at 7 weeks of age were maintained on the high fat diet for a total of 13 weeks of study period. Mice were entered into the experiments when determined to be glucose intolerant as described above. Methods of drug administration and other experimental methods were as described above.
Glucose Tolerance Test (GTT): was performed according to standard protocol (Ayala et al 2010). Briefly, basal glucose levels were measured for conscious mice individually caged in 1000 cc plastic mouse caging using a one-touch ultra glucose strips and meter (Acqui-check Aviva, Roche, Montreal, Canada) and approximately 30 microliters of blood obtained via tail venipuncture prior to fasting for six hours in cages equipped with hardwood bedding. Fasting blood glucose was recorded at the end of the six hours fasting period. Mice were then tested for oral glucose tolerance (OGTT) or for insulin sensitivity (Si). For OGTT alert mice were then given 20% D-glucose (2 g/kg body weight) sterile syrup administered orally. For Si experiments mice were given 20% D-glucose (2 g/kg body weight) sterile syrup by intraperitoneal administration through a 1 ml D29 gage “½” insulin syringe (Fisher Scientific, Montreal, Canada). Then after, blood glucose was recorded at 15, 30, 45, 60, 90 and 120 minutes respectively. For Si experiments blood glucose was determined only at 15 minutes. Glucose tolerance graphs were generated by blotting mean±standard error of the mean (SEM) of the recorded glucose data per mouse per minute collection time. One way analysis of variance (ANOVA) followed by student t-test was performed to determine alpha values for statistical differences among mean blood glucose values across experimental mice groups.
Fasting immuno-reactive mouse insulin levels were quantitatively determined in citrated platelet-free plasma samples obtained from 6 hours-fasting mice using an Ultrasensitive mouse Insulin Eliza kit (#90080, Crystal chem., IL, USA) according to the manufacturer instructions. Briefly, platelet-free plasma were isolated from freshly obtained citrated whole blood samples of fasting mice and the provided insulin standards were incubated overnight on a shaking platform at 4 C^0 in a 96 wells plate coated with Guinea pig anti-insulin. Afterwards, unbound sample materials were thoroughly washed with the supplied wash buffers and the bound guinea pig anti-insulin/mouse insulin complex immobilized to the microplate wells were incubated with Horseradish peroxidase (HRP)-conjugated anti-insulin antibody for 40 minutes at room temperature with continuous agitation. Excess unbound HRP-conjugated anti-insulin antibodies were then washed excessively with wash buffers and the HRP-mediated color reaction was developed with the addition of 3,3′,5,5′ tetramethylbenzidine (TMB) substrate solution. The amount of insulin (ng/ml) present in the test samples were then measured via interpolation using the standard curve generated by plotting absorbance (at A^0450-A^0635) versus the corresponding concentration of a wide range (0.1-12.8 ng/ml) of mouse insulin standards according to the provider's instructions. Graphic representation of differences in mean±sem of plasma insulin among different groups of mice were blotted using Prism5 (La Jolla, Calif., USA) software and statistically significant differences (at 95% confidence) were calculated for the different test groups of mice using one way ANOVA followed by Bonferroni modified student t-test comparing differences between individual experimental groups.

The subject of assay [2] is female NZO mice fed a continuous high fat diet. Nature of the assay: Weight loss, comparison of macrolides. The class given is in vivo, mouse. The settings on record: tacrolimus 0.05 or 0.1 mg/kg, pimecrolimus 0.1 mg/kg, sirolimus 0.1 mg/kg s.c. every other day for three weeks; vs vehicle.
From the text: as §2

Assay [3] has as its system type 2 diabetes NZO mouse model. The assay is described as follows: HOMA-IR, HOMA-B and insulin sensitivity index (Si). The class given is in vivo. The protocol: as §1
HOMA IR=fasting glucose (mmol/L)×fasting insulin ([…])/22.5 according to the method of Bonora E et al., 2000. Pancreatic β-Cell function (HOMA-B) was calculated according to the method of Tresaco B et al., 2005, HOMA-B=[20×[…]). Insulin sensitivity (Si) was determined according to the method of Matthews D et al., 1985. Si=[basal glucose]−[glucose 15 min]/15).

Assay [4] deals with NZO mice fed a high fat diet. The assay is described as follows: Implantation rate and resorption, comparison of macrolides. In kind it is in vivo, mouse. As to conditions: vs vehicle. On the procedure:
as §2
Peri-implantation (E4.5) and post-implantation (E6.5) pregnant and/or pseudopregnant (E4.5bid and E6.5bid) mouse uteri were prepared after mating respectively with fertile and/or vasectomized males as previously described (Herington et al. Endocrinol 2009 150: 4404-4413). The morning of vaginal plug detection was considered as gestational day 0.5 (E0.5 or Gd.0.5). An average number of twenty Concanavalin A(ConA)-coated sepharose beads (average size of 0.1 mm-diameter) (Sigma-Aldrich, Burlington, Ontario, Canada) was injected into the lumen of the left uterine horn of anesthetized animals between hours 13:00 and 16:00 on day 2.5 of pseudopregnancy according to the procedure described by Herington et al. (Endocrinol, 2009 150: 4404-4413). With the use of Ketamine/Xyalzine anesthesia and cardiac puncture, all animals were sacrificed at the age of 16-18 weeks between the morning hours 09:00-11:00. Pregnant and pseudopregnant mice were sacrificed in the morning of days 4.5 and 6.5 of their respective pregnancy. Blood samples were collected from all animals and were let stand for 1 hour at room temperature before isolation of the serum. Serum samples were stored at −80° C. until they were analyzed for their steroid hormones and lipid contents by appropriate laboratory procedures such as radio-immunoassay (RIA) all of which were conducted at the Department of Clinical Chemistry (Kingston General Hospital, Kingston, Ontario, Canada). Ovaries, oviducts and uteri were carefully dissected out of carcasses and were placed in ice-cold phosphate buffered saline (PBS)-containing petri dishes. Under a dissecting microscope, uteri were carefully isolated from their attached uterine tubes, trimmed of all mesenteric fat and were immediately weighed. The numbers of corpora lutea and implantation sites (viable and resorbed) were counted, respectively, from E4.5 and E6.5 pregnant mouse ovaries and uteri. For protein and RNA extraction, virgin uteri and segments of uterine horns containing inter-implantation sites of pregnant and pseudopregnant uteri were transected and snapped frozen in liquid nitrogen.
Examination of external morphological features of uteri of pregnant mice, including counts of implantation sites and photography was performed using a computerized dissecting microscope (Leica Diagnostic Instruments, USA) and the image acquisition and analytic software (SPOT 2.2.0). Percentage of peri-implantation embryo loss was calculated as described by Bindali and Kaliwal (Ind. Health, 2002 40:191-197), using the formula: % Preimplantation loss=[Total number of corpora lutea−Total number of implantation]/Total number of corpora lutea. Immunohistochemical localization and assessment of microscopic morphological features of implantation and inter-implantation sites in normoglycemic and diabetic NOD mice were performed on methacarn (60% methanol, 30% chloroform and 10% acetic acid)-fixed specimens. […]

Assay [5] has as its system high fat fed female NZO mice. The assay is described as follows: Ovarian histology of macrolide-treated chronically high fat fed NZO mice. In kind it is in vivo, mouse. As to conditions: chronically high fat diet fed NZO mice. The protocol: Statistical differences between groups were measured by two-way analysis of variance (ANOVA) followed by Bonferroni post-hock t-test comparing effect of all tested macrolides on mean follicular structure counts/unit area at 95% confidence. Scale bars=200 μm for B, D, F, G, H, I, J and 50 μm for A, C, E. N=10 (HFD-NZO), 6 per treatment group. A, C and E are higher magnifications of B, D and F respectively. * denoting ovarian cyst(s).
as §2

[6] abbreviates: 0.1 mg/kg s.c. every other day for 3 weeks, vs vehicle.

`CC[C@@H]1/C=C(\C)C[C@H](C)C[C@H](OC)[C@H]2O[C@@](O)(C(=O)C(=O)N3CCCC[C@H]3C(=O)O[C@H](/C(C)=C/[C@@H]3CC[C@H](Cl)[C@H](OC)C3)[C@H](C)[C@@H](O)CC1=O)[C@H](C)C[C@@H]2OC` [pimecrolimus]: in assay [1] (setting [6]), the “fasting basal serum glucose” value was “maintained low fasting basal serum glucose and insulin levels”; the “fasting basal serum insulin” value is “maintained low fasting basal serum glucose and insulin levels”. Besides, the glucose intolerance entry in assay [1] (0.1 mg/kg, FIG. 17C, p=0.0001) is on record as “significantly reduced glucose intolerance although to a lesser degree than tacrolimus”. Besides, the “insulin secretion in response to a hyperglycemic challenge” value in assay [1] (tacrolimus 0.1 or 0.05 mg/kg, pimecrolimus 0.1 mg/kg, sirolimus 0.1 mg/kg s.c. every other day for 3 weeks, vs vehicle) is reported as “significantly improved insulin secretion”. Also, in assay [2], the weight loss result was “induced statistically significant weight loss”. Besides, in assay [3] (p<0.001 vs vehicle), the “insulin resistance (HOMA-IR)” value is reported as “significantly reduced insulin resistance”. The “insulin sensitivity (Si)” value in assay [3] (p<0.01 vs vehicle) was “enhanced insulin sensitivity”. Also, the “pancreatic β-cell function (HOMA-B)” value in assay [3] (p<0.05 vs vehicle) is on record as “enhanced pancreatic β-cell function”. For the same compound, the “embryonic and fetal absorption rate” value in assay [4] (same treatments, p<0.05) was “significantly reduced embryonic and fetal absorption rate”. Moreover, in assay [4] (tacrolimus 0.05 and 0.1 mg/kg, pimecrolimus 0.1 mg/kg, sirolimus 0.1 mg/kg s.c. every other day for three weeks), the implantation rate result is listed as “significantly improved implantation rate (p<0.05)”. The “follicular growth pattern in the ovaries” value in assay [5] is reported as “restored follicular growth pattern”. Also, the ovarian cyst formation result in assay [5] (p<0.001) is on record as “inhibited the development of ovarian cysts”. Moreover, in assay [5] (vs untreated HFD-NZO), the ovarian follicular atresia result is given as “significantly inhibited ovarian follicular atresia (p<0.01)”.

The values above are taken from patent publication US9427433B2, “Methods and compositions for enhancing fertility and/or inhibiting pregnancy failure and restoring glucose tolerance” (Queen's University at Kingston, priority 2011, dated 2016).
